The values that follow come from ChEMBL document CHEMBL3988442, “University of Dundee, Small-Polar-MMV Screening Library” (2021).

Several values for one entry are separate records, joined by “and”; a condition that tells them apart may be missing. Equal entries are not always repeated. Where only a bound is given, the exact number is not on record here.

The nature of the assay: In vitro enzyme assay to detect hydrolysis of chlorophenol red-beta-D-[…] directly proportional to the number of Toxoplasma stably expressing beta-galactosidase. The settings on record: for IC50: Toxoplasma gondii. It is filed as functional, organism-based, Toxoplasma gondii.

As usually defined, the IC50 is the concentration that inhibits the measured activity by half. Read a high IC50 as weaker potency in that assay. With `Cc1c(S(=O)(=O)NC2CC2)cc2c(C)cc(=O)n3c2c1CCC3`, the IC50 was 48.5 µM.

As a reminder, the pIC50 is −log10 of the IC50, conventionally taken in molar units. Higher therefore signals a low IC50. `c1cc(-c2nn3c(CN4CCOCC4)nnc3s2)ccn1`: the pIC50 is below 4.3 and the IC50 was 44.7 µM.

`Cc1ccc(CN(C)C(=O)Cn2cnnn2)o1` gave an IC50 above 50.1 µM.

In turn, `O=C([C@@H]1CCO[C@@H]2CCN(CC3CC3)C[C@H]21)N1CCCCO1` had an IC50 above 50.1 µM.

With `CN1CCC(NCC(O)c2cccc(OCc3ccccc3)c2)CC1` (stereo unspecified), 7.98 µM corresponded to half-maximal inhibition (IC50).

Consider `CCCc1nc(NCCCOCC)c2c(n1)c(C)nn2CC`, for which the IC50 is above 50.1 µM.

With `O=C1CN(CC(=O)Nc2c(Cl)cccc2Cl)CCN1`, the IC50 was above 50.1 µM.

`Cc1ccc(C(=O)NCCCNCCCN(C)C)cn1` had an IC50 above 50.1 µM.

Turning to `CN1CCC(NC(=O)c2cc3ccccc3s2)C1=O` (stereo unspecified), the IC50 is above 50.1 µM.

On to `O=C(COc1ccc2c(c1)CCC2)NCc1ccco1`, for which 35.5 µM corresponded to half-maximal inhibition (IC50). In other words, the double-digit micromolar range.

In the case of `Cc1ccc(Cl)cc1NC(=O)CN1CCNC(=O)C1`, the IC50 was above 50.1 µM.

`Cc1cc2cc(C(=O)N3CC[C@@H](N)[C@H](O)C3)ccc2o1` gave an IC50 above 50.1 µM.

With `COc1ccc(C)cc1CC(=O)N1CCN(C)CC1`, the IC50 was above 50.1 µM.

With `CC(C)(C)c1cn2c(n1)C(CNCc1cnn3ccccc13)CCC2` (stereo unspecified), the IC50 is 2.52 µM.

With `CNC(=O)[C@@H]1CSCN1c1ccc(C(F)(F)F)cn1`, the 50% inhibitory concentration (IC50) is above 50.1 µM.

Take `COc1ccc(-n2nnc(C(=O)O)c2-c2ccccn2)cc1`: half-maximal inhibition (IC50) required 24.8 µM.

Take `CC(C)n1cc(S(=O)(=O)N2CCCCCC2)cn1`: the IC50 was above 50.1 µM.

Molecule `COc1ccc(-c2nnc(SC(C)C(=O)NC3CCCC3)[nH]2)c(OC)c1` (stereo unspecified) showed an IC50 above 50.1 µM.

For `CNc1cc(-c2cccc(OC)c2OC)nc(N)n1`, the IC50 is above 50.1 µM.

Take `COC(=O)c1ccc2c(c1)CCCN2S(=O)(=O)c1cn(C)c(C)n1`: the 50% inhibitory concentration (IC50) was 7.21 µM.

`Cc1ccc([C@]2(O)CC[C@H]3CN(Cc4cccc(Cl)c4Cl)C[C@H]32)nc1` had a half-inhibitory concentration (IC50) of 8.76 µM.

On to `c1nc(N2CCOCC2)nc2c1COCC21CCN(CC2CC2)C1` (stereo unspecified), for which the pIC50 is recorded as below 4.3 and half-maximal inhibition (IC50) was put at 44 µM.

As for `Cc1[nH]c2ccccc2c1-c1ccnc(N[C@@H](C)CO)n1`, the midpoint of inhibition, the IC50, lay at 43.3 µM.

For the molecule `Cc1nnc(SCCNC(=O)CC2C=CS(=O)(=O)C2)s1` (stereo unspecified), the IC50 was above 50.1 µM.

In the case of `CNc1cc(-c2cccc(OC)c2)[nH]n1`, the IC50 was above 50.1 µM.

In the case of `CCn1cc(NC(=O)c2cc(C)nc(N3CCOCC3)n2)cn1`, the IC50 was above 25.1 µM.

As for `CCn1nc(C)c2nc(C(C)C)nc(NCC(C)O)c21` (stereo unspecified), the half-maximal inhibitory concentration (IC50) was above 50.1 µM.

`COC(=O)c1ccc(NS(=O)(=O)c2cnc(NC(C)=O)s2)cc1` showed a half-maximal inhibitory concentration (IC50) above 50.1 µM.

As to `CN(C)CCCNCCC(Cc1ccccc1)C1CCOC(C)(C)C1.O=C(O)C(=O)O` (stereo unspecified), the pIC50 amounted to 5.163 and inhibition was half-maximal at 4.6 µM (IC50).

Molecule `CCCc1nc(CN(CC)C(=O)c2onc3ccccc23)no1` showed an IC50 above 50.1 µM.

In turn, `CCC(CC)(CCO)CNC(=O)c1cncc(C)c1` showed an IC50 above 50.1 µM.

Regarding `OC[C@H]1CCCN1c1nccc(-c2c[nH]nc2C2CCCCC2)n1`, the IC50 is 11.5 µM.

Molecule `Cc1cc(CN)nc(N(C)C)n1` gave an IC50 above 50.1 µM.

For `c1nc(N2CCNCC2)c2sccc2n1`, the IC50 was above 50.1 µM.

In the case of `N#Cc1c(Cl)nsc1NCC1(c2ccccc2)CCC1`, the IC50 was 5.72 µM.

On to `CC(=O)NCc1cccc(OCc2ccccn2)c1`, for which the IC50 is above 50.1 µM.

Take `Cc1cc(C(=O)N(C)Cc2cccs2)nc(N2CCCCC2)n1`: the IC50 was above 50.1 µM.

In turn, `Cc1cncc(C(=O)N2CCCC2C(C)(C)O)c1` (stereo unspecified) showed an IC50 above 50.1 µM.

Regarding `CCNS(=O)(=O)c1csc(C(=O)Nc2cc(C)on2)c1`, the IC50 was above 50.1 µM.

With `CCc1ccc(NC(=O)C(C)Nc2cccc3c2OCCO3)cc1` (stereo unspecified), the pIC50 was 5.373 and 4.972.

On to `COc1c(CNC2(c3noc(C)n3)CCC2)c(C)nn1C`, for which the IC50 is above 50.1 µM.

As to `Cc1ccoc1C(=O)Nc1cccc(CO)n1`, the IC50 was above 50.1 µM.

`c1cnc(-c2nn3c(CN4CCCCC4)nnc3s2)cn1` had an IC50 above 50.1 µM.

`CC(C)NC(=O)Nc1nc2c(s1)CN(C(=O)NCc1cccs1)CC2` had a pIC50 of 4.581 and an IC50 above 50.1 µM.

In turn, `O=C(NCCc1ncc[nH]1)c1cccnc1SC(F)F` gave an IC50 above 50.1 µM.

For the molecule `Cc1c(NC(=O)c2ccc(Br)cc2)c(C(=O)N(C)C)nn1C`, the 50% inhibitory concentration (IC50) is above 50.1 µM.

Molecule `O=C(N1CCOCC1)[C@@]12CCO[C@@H]1CCN(C1CCC1)C2` had an IC50 above 50.1 µM.

`Cn1ncc(C(=O)N2CCN(CCS(C)(=O)=O)CC2)c1Cl`: the IC50 is above 50.1 µM.

Take `C[C@@H]1CN(C(=O)c2cc(F)cc(C#N)c2)C[C@]1(C)O`: the IC50 is above 50.1 µM.

Consider `Cc1cnc(NC(=O)c2cccc(CN(C)Cc3ncccc3C)c2)s1`, for which the IC50 is 13.6 µM.

For `CNC(=O)CCN1CC(Oc2ccc(C)cc2)C1`, the IC50 is above 50.1 µM.

As to `CC(C)N1CCCN(c2nc(-c3cccnc3)nc3c2cnn3C)CC1`, the IC50 is 5.84 µM.

The molecule `Cc1nn(C)c2c(=O)n(Cc3ccccc3)nnc12` had an IC50 above 50.1 µM.

`Cc1c(S(=O)(=O)N2CCOCC2)cc2c(C)cc(=O)n3c2c1CCC3` showed an IC50 above 50.1 µM.

With `CC(C)[C@@H]1CN(c2ncc(F)cn2)C[C@H]1NS(=O)(=O)N(C)C`, the IC50 was above 50.1 µM.

Molecule `CCS(=O)(=O)N(CCc1cccs1)CC(=O)NC` showed an IC50 above 50.1 µM.

The molecule `Cc1ncc(CN2CCOC(c3ccc(-c4ccccc4F)cn3)C2)s1` (stereo unspecified) had an IC50 of 9.61 µM.

For `O=C(N1CCCC1)N1C[C@H]2CCC[C@@]2(COCc2ccccn2)C1`, the IC50 was above 50.1 µM.

As for `Cc1cc(CN2CCC3(CC2)COC(COc2ccccn2)C3)no1` (stereo unspecified), the IC50 is above 50.1 µM.

Consider `CCN(Cc1nonc1C)C(=O)Cn1nc(C(F)(F)F)cc1C1CC1`, for which the IC50 is above 50.1 µM.

Molecule `CCOc1ccc2ccccc2c1CNCC1CCNCC1` showed an IC50 of 6.4 µM.

`CNC(=O)NCc1cccnc1OC1CCCC1` had an IC50 above 50.1 µM.

`O=C(c1ccc(-c2ccc(O)nc2)s1)N1CCCCC1`: the IC50 is above 50.1 µM.

`Cc1c(CC(=O)N2CCN(C(C)C)CC2)nnn1-c1ccccc1`: the IC50 was above 50.1 µM.

`Cc1cccc(NC(=O)C2CC(=O)n3cnnc3S2)c1` (stereo unspecified) gave a pIC50 of 4.363 and an IC50 above 50.1 µM.

For `CCNc1ncc2c(n1)CN(c1ccc(C)c(C)c1)C2=O`, the IC50 is above 50.1 µM.

As for `OC1(CNCCOCc2ccc(Cl)cc2)CCCNC1` (stereo unspecified), the IC50 is above 50.1 µM.

As for `Cn1cc(CN(C(=O)c2ccc(N)nc2)C2CC2)cn1`, the IC50 is above 50.1 µM.

`Nc1nc2c(c(NCc3nccs3)n1)CCN(CC1CCCC1)CC2` had an IC50 of 7.85 µM.

Consider `Cc1nc(N2CCN(C(=O)c3ccncc3)CC2)c2c(n1)c(C)nn2C`, for which the IC50 is above 50.1 µM.

As for `CC1CN(C)CCC1=O` (stereo unspecified), the IC50 was above 50.1 µM.

With `O=C(N1CCOCC1)[C@@]12CCO[C@@H]1CCN(C1CCOCC1)C2`, the IC50 was above 50.1 µM.

In turn, `CC(=O)NCCCS(=O)(=O)c1ncccc1Cl` gave an IC50 above 50.1 µM.

`N#Cc1ccnc(SCC(=O)Nc2ccncc2)c1` showed an IC50 above 50.1 µM.

Molecule `CC(C)CNC(=O)CSc1n[nH]c(-c2ccccn2)n1` gave an IC50 above 50.1 µM.

Turning to `Cc1nn(C)c2c(=O)n(C(C)C)c(NCCc3ccccc3)nc12`, half-maximal inhibition (IC50) was put at 36.1 µM.

`O=C(NC1CCCSC1)N(CCO)C1CC1` (stereo unspecified) gave an IC50 above 50.1 µM.

`CCCc1ccc(C(=O)N[C@@H]2CCOC[C@H]2O)cc1` had an IC50 above 50.1 µM.

On to `CCn1c(SCC(N)=O)nnc1C(C)NC(=O)c1ccc(Cl)cc1` (stereo unspecified), for which the IC50 is above 50.1 µM.

Regarding `Cc1ccc(F)cc1C(=O)NC1CCCNC1` (stereo unspecified), the IC50 was above 50.1 µM.

For the molecule `Cc1cc(C(=O)NCCc2noc(C3CC3)n2)nn1C`, the IC50 is above 50.1 µM.

`CN(C)c1cc(CNC(=O)c2nccnc2N)ccn1` showed an IC50 above 50.1 µM.

The molecule `Cc1nnc(NCc2cccc(OCC3CCCO3)c2)c(C#N)c1C` (stereo unspecified) showed an IC50 above 50.1 µM.

In turn, `CSCC(=O)NC(C1CCNCC1)[C@H]1C[C@@H](O)C1` (stereo partly specified) gave an IC50 above 50.1 µM.

`O=C(NC1CCCC1)c1cnccn1` showed an IC50 above 50.1 µM.

Molecule `O=C(NCc1nc(C2CC2)no1)Nc1nncs1` gave an IC50 above 50.1 µM.

With `CCCNC(=O)NCCc1noc(-c2cccnc2)n1`, the IC50 is above 50.1 µM.

The molecule `Nc1c[nH]nc1C(=O)NCc1cccc(Cl)c1` showed an IC50 above 50.1 µM.

In turn, `O=C(NCCC1=CCCCC1)c1n[nH]c2c1CCCC2` had a pIC50 of 5.49 and an IC50 of 1.7 µM.

Turning to `O=C(NCCC1=CCCCC1)c1cc(-c2ccc(O)cc2)n[nH]1`, the IC50 was 0.391 µM.

In turn, `Cc1cc(=O)n2c3c(cc(S(=O)(=O)NC4CC4)cc13)CCC2` showed a 50% inhibitory concentration (IC50) above 50.1 µM.

With `Cc1cc(-c2nc(C3CCOC3)no2)n(C)n1` (stereo unspecified), the IC50 was above 50.1 µM.

`Cc1cc(NCCO)nc(N2CCC(Cc3ccccc3)CC2)c1C#N` showed an IC50 of 10.7 µM. That is a double-digit micromolar value.

As for `CCN1C[C@H]2CCN(C(=O)NC)CC[C@H]2S1(=O)=O`, the pIC50 came to 4.337 and the IC50 was above 50.1 µM.

Molecule `Cc1nnc(SCCO)s1` had an IC50 above 50.1 µM.

`CCC1=NC(SCC(=O)c2ccc(OC)cc2)c2cc(CC)sc2N1` (stereo unspecified) had a half-inhibitory concentration (IC50) of 37.7 µM.

For `NCc1ccnc(N2CCCC2)n1`, the IC50 is above 50.1 µM.

On to `Cn1nnnc1SCCNC(=O)c1cc(Cl)ccc1F`, for which the IC50 was above 50.1 µM.

As to `CCn1c(NCc2cccnc2)nc2c(C)nn(C)c2c1=O`, the IC50 is above 50.1 µM.

For `COCC(=O)N1CCn2c(COc3cccnc3)cnc2C1C` (stereo unspecified), the IC50 was above 50.1 µM.

`COc1ccc(CC#N)cc1S(C)(=O)=O` had a half-maximal inhibitory concentration (IC50) above 50.1 µM.

In turn, `CCc1nnc(Nc2cc(C)nc(C3CCN(c4ccncn4)C3)n2)s1` (stereo unspecified) gave an IC50 above 50.1 µM.

For the molecule `CCC1=NC(SCC(=O)c2ccccc2)c2cc(CC)sc2N1` (stereo unspecified), the half-maximal inhibitory concentration (IC50) is 14.9 µM.

With `Cc1cc(=O)cc(C(=O)NCCC(C)n2ccnc2)o1` (stereo unspecified), the IC50 was above 50.1 µM.

As to `O=C(NCc1ccc2c(c1)OCO2)n1ccnc1`, the IC50 is above 50.1 µM.

The molecule `CN(C)[C@@H]1CN(C(=O)c2ccccc2Br)C[C@H]1CO` gave a concentration for half-maximal inhibition (IC50) above 50.1 µM.

In turn, `CC(NCC(=O)Nc1ccc(N2CCCCCC2)cc1)c1cccs1` (stereo unspecified) gave an IC50 of 19.9 µM.

On to `O=C(c1cnsn1)N1CCN(C2CC2)C(=O)C1`, for which the IC50 was above 50.1 µM.

`Cn1cccc1C(=O)N1C[C@@H](OCc2ccncc2)[C@@H]2OCCC[C@@H]21` had an IC50 above 50.1 µM.
